Like-named read-outs stand apart in the source and are kept apart here. No end group written: not given here.
Legend:
Experiment in all cases: biochemical
Type in all cases: binding
[1] = target: HLA-DR DRB1*1501 (DR15) (Homo sapiens, UniProt P01903+P01911)
[2] = target: HLA-DR DRB5*0101 (DR51) (Homo sapiens, UniProt P01903+Q30154)
[3] = target: HLA-DR DRB1*0101 (DR1) (Homo sapiens, UniProt P01903+P01911, A100R/D57E/F55L/F60I/F76Y/I96L/L162R/M171V/P40L/Q125E/R42F/V115G/Y59C)
[4] = target: HLA-DR DRB1*0901 (DR9) (Homo sapiens, UniProt P01903+P01911, A100R/A103E/D57H/D86V/F55Y/F60I/F76Y/I96F/K127E/L162R/M171V/P40D/Q125H/Q99R/R33Q/R42F/S133A/S66N/T210M/V115G/W38K/Y107V/Y59G/Y89S); settings: DRB1 *0901
[5] = target: HLA-DR DRB1*0701 (DR7) (Homo sapiens, UniProt P01903+P01911, A100R/A102G/A103Q/D57E/D86V/E43K/F76Y/K127E/L162R/M171V/P40G/Q125H/Q99D/R33Q/R42Y/R54Q/S133A/S66F/T210M/V115G/Y107V/Y59L/Y89S)
[6] = target: HLA-DR DRB1*0401 (DR4) (Homo sapiens, UniProt P01903+P01911, A100K/A169T/F76Y/I96L/K127E/L162R/M171V/N62H/P40V/Q125Y/R42H/S133A/S149N/S66Y/V115G/V209L/W38E); settings: DRB1 *0401
[7] = target: HLA-DR DRB4*0101 (DR53) (Homo sapiens, UniProt P01903+P13762, G164S)
[8] = target: HLA-DR DRB1*1302 (DR13) (Homo sapiens, UniProt P01903+P01911, A100E/A169T/K41T/L162R/M171V/P40S/Q125H/Q178H/Q39Y/Q99D/R42S/S66N/T262R/V115G/W38E/Y61H)
[9] = target: HLA-DR DRB3*0101 (DR52) (Homo sapiens, UniProt P01903+P79483)
[10] = target: HLA-DR DRB1*0301 (DR3) (Homo sapiens, UniProt P01903+P01911, A100K/A102G/A103R/A169T/F55Y/I96L/K41T/L162R/M171V/P40S/Q125H/Q178H/Q39Y/R42S/S66N/T106N/T262R/W38E/Y61H)
[11] = target: HLA-DR DRB1*1101 (DR11) (Homo sapiens, UniProt P01903+P01911, A100R/A169T/A87E/I96F/K41T/L162R/M171V/P40S/Q125H/Q178H/Q39Y/Q99D/R42S/S66Y/T262R/V115G/W38E)
HLA-DR DRB1*1101 (DR11), sequence (P01903 26-254 limits assumed, other chains not shown): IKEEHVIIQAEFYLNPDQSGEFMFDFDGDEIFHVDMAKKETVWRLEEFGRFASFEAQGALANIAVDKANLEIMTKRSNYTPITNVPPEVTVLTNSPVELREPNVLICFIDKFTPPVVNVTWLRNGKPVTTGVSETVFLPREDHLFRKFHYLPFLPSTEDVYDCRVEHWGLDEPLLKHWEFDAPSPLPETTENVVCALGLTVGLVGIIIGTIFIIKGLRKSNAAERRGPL

HLA-DR DRB1*0301 (DR3), sequence (P01903 26-254 limits assumed, other chains not shown): as above
HLA-DR DRB1*1302 (DR13), sequence (P01903 26-254 limits assumed, other chains not shown): as above

Compound | IC50 ([2]; DRB5 *0101) [µM] | IC50 ([5]; DRB1 *0701) [µM] | IC50 [6] [µM] | IC50 ([7]; DRB4 *0101) [µM] | IC50 [9] [µM] | IC50 [10] [µM] | IC50 ([11]; DRB1 *1101) [µM] | other results
CC(C)C[C@H](NC(=O)CNC(=O)[C@H](CC(N)=O)NC(=O)[C@H](Cc1ccc(O)cc1)NC(=O)[C@@H](NC(=O)[C@H](CC(=O)O)NC(=O)[C@H](CC(C)C)NC(=O)[C@H](C)N)C(C)C)C(=O)N[C@@H](CC(C)C)C(=O)N1CCC[C@H]1C(=O)N1CCC[C@H]1C(=O)N[C@@H](Cc1ccc(O)cc1)C(=O)N[C@@H](C)C(=O)N[C@@H](CO)C(=O)N[C@@H](CS)C(=O)O | 115 | > 83.3 | 0.485 | > 10.1 | > 15 | – | – | IC50 ([1]; DRBI *1501): 1.09 µM; IC50 ([3]; DRB1 *0101): 0.018 µM; IC50 [4]: 86.6 µM; IC50 ([8]; DRBI *1302): > 35 µM
CC[C@H](C)[C@H](NC(=O)[C@H](Cc1ccccc1)NC(=O)[C@H](C)NC(=O)[C@H](CCCNC(=N)N)NC(=O)[C@H](CCC(=O)O)NC(=O)[C@H](CC(C)C)NC(=O)[C@H](Cc1ccccc1)NC(=O)[C@H](CCSC)NC(=O)[C@H](CC(C)C)NC(=O)[C@H](CCC(N)=O)NC(=O)[C@@H](N)CC(=O)O)C(=O)N[C@@H](CC(=O)O)C(=O)N1CCC[C@H]1C(=O)N[C@@H](CC(C)C)C(=O)NCC(=O)O | – | – | – | 0.0066 | 17.1 | > 19.7 | – | –
CC[C@H](C)[C@H](NC(=O)[C@@H](NC(=O)[C@@H]1CCCN1C(=O)CN)C(C)C)C(=O)N1CCC[C@H]1C(=O)N[C@@H](CCC(N)=O)C(=O)N[C@@H](CC(=O)O)C(=O)N[C@@H](Cc1c[nH]c2ccccc12)C(=O)N[C@@H](CO)C(=O)N[C@H](C(=O)N[C@@H](CCC(=O)O)C(=O)N[C@@H](CS)C(=O)N[C@@H](CCSC)C(=O)N[C@H](C(=O)N[C@H](C(=O)O)[C@@H](C)O)[C@@H](C)O)[C@@H](C)O | – | – | – | 0.961 | 20.3 | 52.1 | – | –
C[C@@H](O)[C@H](NC(=O)[C@H](CCCCN)NC(=O)[C@H](CCC(=O)O)NC(=O)[C@H](CCC(=O)O)NC(=O)CNC(=O)[C@H](Cc1ccccc1)NC(=O)[C@H](CCCNC(=N)N)NC(=O)[C@H](Cc1ccccc1)NC(=O)[C@H](CO)NC(=O)[C@H](CCC(=O)O)NC(=O)[C@H](CCC(=O)O)NC(=O)[C@@H]1CCCN1C(=O)[C@@H]1CCCN1)C(=O)N[C@H](C(=O)N1CCC[C@H]1C(=O)N[C@@H](CO)C(=O)O)[C@@H](C)O | > 2.86 | > 12.5 | – | – | > 14.3 | > 900 | > 10 | IC50 ([3]; DRB1 *0101): > 2.5 µM
CSCC[C@H](NC(=O)[C@@H](N)Cc1c[nH]c2ccccc12)C(=O)N[C@@H](Cc1ccc(O)cc1)C(=O)N[C@@H](Cc1ccc(O)cc1)C(=O)N[C@@H](Cc1c[nH]cn1)C(=O)NCC(=O)N[C@@H](CCC(N)=O)C(=O)N[C@@H](CCCNC(=N)N)C(=O)N[C@@H](Cc1c[nH]cn1)C(=O)N[C@@H](CO)C(=O)N[C@@H](CC(=O)O)C(=O)N[C@@H](CCC(=O)O)C(=O)N[C@@H](Cc1c[nH]cn1)C(=O)N[C@@H](Cc1c[nH]cn1)C(=O)N[C@@H](Cc1c[nH]cn1)C(=O)O | > 5 | > 250 | – | – | > 7.69 | > 900 | > 10 | IC50 ([3]; DRB1 *0101): ≥ 50 µM
CSCC[C@H](NC(=O)[C@@H]1CCCN1C(=O)[C@H](CC(=O)O)NC(=O)[C@@H](N)Cc1ccc(O)cc1)C(=O)N[C@@H](Cc1ccccc1)C(=O)N[C@@H](CCCCN)C(=O)N[C@@H](Cc1ccc(O)cc1)C(=O)N[C@@H](Cc1c[nH]cn1)C(=O)N[C@@H](CC(C)C)C(=O)N[C@H](C(=O)N[C@H](C(=O)N[C@@H](C)C(=O)N[C@@H](CCC(N)=O)C(=O)N[C@H](C(=O)N[C@@H](CCCNC(=N)N)C(=O)O)C(C)C)C(C)C)[C@@H](C)O | 0.062 | 0.158 | 0.019 | 0.553 | 8.14 | > 75 | 0.252 | IC50 ([1]; DRBI *1501): 1.35 µM; IC50 ([3]; DRB1 *0101): 0.009 µM; IC50 ([8]; DRBI *1302): 1.01 µM
AATYNFAVLKLMGRGTKF | 0.018 | – | – | 1.22 | 70 | > 52.9 | 0.017 | –
AFGSMAKKGEEQNVRSAGEL | – | > 12.5 | > 0.667 | – | > 33.3 | > 30 | 1.82 | –
AKSTWYGKPTGAGPKDNGGA | – | > 12.5 | – | 10 | > 20 | > 30 | – | –
DIAAKYKELGY | ≥ 200 | – | > 0.471 | – | > 25 | > 900 | > 10 | –
GAGPKDNGGACGYKDVDKAP | – | > 12.5 | > 0.667 | – | > 20 | > 30 | – | –
GAPLGGALRALAHGV | – | – | 15 | – | > 51.1 | > 486 | – | IC50 [1]: 2.07 µM; IC50 [2]: 5.4 µM; IC50 [3]: 0.068 µM; IC50 [5]: 1.42 µM; IC50 [11]: 0.083 µM; IC50 [7]: 4.89 µM; IC50 [8]: 0.34 µM
GGVLVNEILNHMKRA | – | – | – | – | – | – | – | IC50 ([1]; read-out: DRBI *1501): 0.576 µM; IC50 ([2]; read-out: DRB5 *0101): 0.0087 µM; IC50 ([11]; read-out: DRB1 *1101): 0.255 µM; IC50 ([7]; read-out: DRB4 *0101): 0.0058 µM; IC50 ([8]; read-out: DRBI *1302): 0.049 µM; IC50 ([9]; read-out: DRB3 *0101): 8.12 µM
GMLPVCPLIPGSSTTSTGP | – | – | 0.4 | – | > 25 | > 900 | 2.5 | –
IAKVPPGPNITAEYGDKWLD | – | > 12.5 | > 0.667 | – | > 20 | > 30 | – | –
LPSWATEDTMTKIRE | – | – | – | – | – | – | – | IC50 ([1]; read-out: DRBI *1501): > 45.5 µM; IC50 ([11]; read-out: DRB1 *1101): > 66.7 µM; IC50 ([7]; read-out: DRB4 *0101): > 11.1 µM; IC50 ([8]; read-out: DRBI *1302): > 35 µM; IC50 ([9]; read-out: DRB3 *0101): 5.97 µM
QAKKEKLNIWSEDNADSGQ | – | > 250 | – | – | > 5.56 | > 900 | – | –
QKGRGYRGQHQAHSLERVCH | 9.76 | – | 0.088 | 18 | > 500 | > 47.4 | 30.2 | IC50 ([1]; DRBI *1501): > 9.1 µM
SAAPLRTITADTFRK [SAAPLRT1TADTFRK] | 0.045 | – | – | 0.017 | 2.11 | – | 3.88 | IC50 ([1]; DRBI *1501): 0.858 µM; IC50 ([8]; DRBI *1302): 0.809 µM
TAEYGDKWLDAKSTWYGKPT | – | 3.13 | > 0.667 | 10 | > 20 | > 30 | – | –
TLERPKTLSPGKNGV | – | – | – | – | – | – | – | IC50 ([1]; read-out: DRBI *1501): 23.3 µM; IC50 ([2]; read-out: DRB5 *0101): 11.3 µM; IC50 ([11]; read-out: DRB1 *1101): > 52.6 µM; IC50 ([7]; read-out: DRB4 *0101): 25.7 µM; IC50 ([8]; read-out: DRBI *1302): 0.835 µM; IC50 ([9]; read-out: DRB3 *0101): > 263 µM
TPDKLTGPFTVRYTTEGGTK | – | > 12.5 | > 0.667 | – | > 25 | > 900 | – | –
VGGVYLLPRRGPRIGV | – | – | – | – | – | – | – | IC50 ([1]; read-out: DRBI *1501): 0.0042 µM; IC50 ([2]; read-out: DRB5 *0101): 0.012 µM; IC50 ([11]; read-out: DRB1 *1101): 0.088 µM; IC50 ([7]; read-out: DRB4 *0101): 19.2 µM; IC50 ([8]; read-out: DRBI *1302): > 15.4 µM; IC50 ([9]; read-out: DRB3 *0101): 60.8 µM
VRVEILRNFYVINRL | – | – | – | – | – | – | – | IC50 ([1]; read-out: DRBI *1501): 0.00104 µM; IC50 ([2]; read-out: DRB5 *0101): 0.485 µM; IC50 ([11]; read-out: DRB1 *1101): 0.504 µM; IC50 ([7]; read-out: DRB4 *0101): 0.187 µM; IC50 ([8]; read-out: DRBI *1302): 0.0058 µM; IC50 ([9]; read-out: DRB3 *0101): 80.4 µM
VRYTTEGGTKSEVEDVIPEG | – | > 12.5 | > 0.667 | – | > 25 | > 30 | – | –
YGRILHYLKAKEDSH [YORILHYLKAKBDSH] | 0.039 | – | – | 0.14 | 455 | – | 0.812 | IC50 ([1]; DRBI *1501): 0.016 µM; IC50 ([8]; DRBI *1302): 2.78 µM
YLVCGERGFFYTKPT | > 28.4 | – | – | 40.4 | 12.8 | – | > 60.6 | IC50 ([1]; DRBI *1501): > 25.6 µM; IC50 ([8]; DRBI *1302): 3.47 µM

Reference: US20060079453A1, “Hla binding peptides and their uses” (priority 2002, published 2006)
